Values of other authors as cited in patent US9062045B2, “Triazolopyridine compounds” (Novartis AG, priority 2012, dated 2015).

Details: cited from earlier work

SMILES: Cn1cc(-c2ccc3nnc(Sc4ccc5[nH]c(=O)ccc5c4)n3n2)cn1 [2-quinolinone-SGX523 metabolite, 6-(6-(1-methyl-1H-pyrazol-4-yl)-[1,2,4]triazolo[4,3-b]pyridazin-3-ylthio)quinolin-2(1H)-one]
- solubility compared with SGX523: markedly less-soluble
